Common to all, as to type: cell-based
One test relates to U251 glioblastoma cells. The test can be described thus: MTT antiproliferative assay on U251 cells. The following applies: Brain glioblastoma U251, MTT, 72 h, 1 × 10^−7 to 1 × 10^−4 Molar, OD 570 nm; three-parameter log-logistic fit. From the text: (§1) The purified peptides, named CTNsen1, CTNsen2, CTNsen3, CTNanc1, CTNanc2, and CTNanc3 from Naja senegalensis and Naja anchietae respectively, were subsequently tested for their antiproliferative effects on several glioblastoma cell lines (U87, U251, and T98G) as well as on primary human umbilical vein endothelial cells (HUVECs). A series of increasing concentrations (1 × 10^−⁷, 0.5 × 10^−6, 1 × 10^−⁶, 0.5 × 10^−5, 1 × 10^−⁵, 0.5 × 10^−4, and 1 × 10^−⁴ Molar) were used. The dose-response curves for each peptide are depicted in Figure 9, Figure 10, Figure 11 and Figure 12.
Figure 10 Antiproliferative activity of CTNsen1 (a), CTNsen2 (b), CTNsen3 (c), CTNanc1 (d), CTNanc2 (e), and CTNanc3 (f) from Naja senegalensis and Naja anchietae respectively. […] The OD was measured at 570 nm.
(§2) U87 and T98G were plated at a density of 4000 cells per well and U251 cells at a density of 2500 cells per well in microtiter plates and allowed to adhere overnight at 37 °C in a 5% CO2 humidified environment. The following day, the medium was replaced with fresh medium containing our venom peptides under investigation. After a 72-h incubation period, cells were treated with MTT (Promega, Lyon, France) at a concentration of 0.5 mg/mL. […] Viable cells were then quantified by measuring the absorbance at 570 nm. […] Model calibration was assessed using the drm() function. […]
On the technique in general: Tetrazolium assays rely on reduction of a dye to a coloured formazan, in cell work by metabolically active cells.

For a further test, the system named is T98G glioblastoma cells. Nature of the test: MTT antiproliferative assay on T98G cells. The following applies: Brain glioblastoma T98G, 72 h, 1 × 10^−7 to 1 × 10^−4 Molar, OD 570 nm, three-parameter log-logistic fit.
Description: as §1
Figure 11 Antiproliferative activity of CTNsen1 (a), CTNsen2 (b), CTNsen3 (c), CTNanc1 (d), CTNanc2 (e), and CTNanc3 (f) from Naja senegalensis and Naja anchietae, respectively. […] The OD was measured at 570 nm.
as §2

The next test concerns MCF-7 cells. Nature of the test: MTT antiproliferative assay on MCF-7 cells (venom screening and isolated peptides). As to conditions: MCF7 cells, 72 h, 4 µg and 20 µg of peptide. The protocol:
We screened nearly 40 different animal venoms to evaluate their potential anticancer properties. The venoms were solubilized at a concentration of 1.5 mg/mL in water. The antiproliferative activity of these venoms was tested at two concentrations, 3 µg and 15 µg, against MCF-7 cells (Appendix A, Figure A1).
Figure A1 Antiproliferative activity of different animal venoms. […] The OD was measured at 570 nm after 72 h of treatment. The abbreviations include Na: Naja anchietae; Vg: Viridovipera gumprechti; Vk: Vipera kaznakovi; Tv: Trimeresurus vogeli; Tt: Trimeresurus trigonocephalus; Ach: Atheris chlorechis; Ath ni: Atheris nitschei nitschei; Nox: Naja oxiana; Np: Naja philippinensis; At sq: Atheris squamigera; Nhl: Naja haje legionis; Por Oph: Porthidium ophryomegas; Ph: Parias hageni; Ns: Naja senegalensis.
Figure A2 Antiproliferative activity of CTNsen1, CTNsen2, CTNsen3, CTNanc1, CTNanc2, and CTNanc3 from Naja senegalensis (b) and Naja anchietae (a), respectively. […] Na and Ns here were used as a positive control at two concentrations (3 µg and 15 µg). The OD was measured at 570 nm.

The record followed here is article PMC11511367, “Antiproliferative Effects of Naja anchietae and Naja senegalensis Venom Peptides on Glioblastoma Cell Lines” (Toxins, 2024).

Bridges are numbered along the chain shown (N, C = ends). Where no end group is shown, it is not given here.

For “LKCHQLVPPFWKTCPEGKNLCYKMYMVSSSTVPVKRGCIDVCPKNSALVKYVCCNTDKCN (disulfide 3-21, 14-38, 42-53, 54-59) [CTNsen1]”, the “IC50 (μg/mL), U251” value with U251 glioblastoma cells is “Inactive”. Moreover, the “IC50 (μg/mL), T98G” value in the test on T98G glioblastoma cells is recorded as “Inactive”. Also, the “Antiproliferative activity of isolated peptides” value in the test with MCF-7 cells was “activity was confirmed”.
